In ChEMBL document CHEMBL5236655, “Role of symmetry in 3,3-diphenyl-1,3-dihydroindol-2-one derivatives as inhibitors of translation initiation” (Bioorg Med Chem Lett, 2023):

Experiments:
[1] = Antiproliferative activity against human CRL-2813 cells incubated for 5 days by SRB assay; format: functional, cell-based; details: CRL2813, 120 h
[2] = Antiproliferative activity against human CRL-2351 cells incubated for 5 days by SRB assay; format: functional, cell-based; details: CRL-2351, 120 h
[3] = target: Interferon-induced, double-stranded RNA-activated protein kinase (Homo sapiens) (UniProt P19525); test: Induction of eIF2alpha phosphorylation (unknown origin) assessed as fold increase in ATF-4 stimulation at 40 uM by dual luciferase reporter assay; details: filed as activator
Interferon-induced, double-stranded RNA-activated protein kinase (Homo sapiens), sequence (P19525 whole entry): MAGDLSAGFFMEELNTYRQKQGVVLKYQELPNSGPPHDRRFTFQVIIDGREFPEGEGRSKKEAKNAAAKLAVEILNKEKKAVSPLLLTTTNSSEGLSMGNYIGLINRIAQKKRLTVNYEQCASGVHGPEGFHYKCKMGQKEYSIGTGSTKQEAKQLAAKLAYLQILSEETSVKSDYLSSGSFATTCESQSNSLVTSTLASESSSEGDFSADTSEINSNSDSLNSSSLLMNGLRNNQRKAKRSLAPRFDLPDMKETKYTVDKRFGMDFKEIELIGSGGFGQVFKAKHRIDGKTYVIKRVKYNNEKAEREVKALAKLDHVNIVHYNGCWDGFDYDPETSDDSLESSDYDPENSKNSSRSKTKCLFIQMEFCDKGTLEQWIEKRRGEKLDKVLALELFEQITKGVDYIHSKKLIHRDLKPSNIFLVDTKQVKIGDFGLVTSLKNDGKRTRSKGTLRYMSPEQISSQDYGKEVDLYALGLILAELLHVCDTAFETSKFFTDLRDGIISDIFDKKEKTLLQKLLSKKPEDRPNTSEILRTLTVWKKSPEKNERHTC

[4] = target: Interferon-induced, double-stranded RNA-activated protein kinase (Homo sapiens) (UniProt P19525); test: Induction of eIF2alpha phosphorylation (unknown origin) assessed as fold increase in ATF-4 stimulation at 80 uM by dual luciferase reporter assay; details: filed as activator
[5] = target: Interferon-induced, double-stranded RNA-activated protein kinase (Homo sapiens) (UniProt P19525); test: Induction of eIF2alpha phosphorylation (unknown origin) assessed as fold increase in ATF-4 stimulation at 2.5 uM by dual luciferase reporter assay; details: filed as activator
[6] = target: Interferon-induced, double-stranded RNA-activated protein kinase (Homo sapiens) (UniProt P19525); test: Induction of eIF2alpha phosphorylation (unknown origin) assessed as fold increase in ATF-4 stimulation at 10 uM by dual luciferase reporter assay
[7] = target: Interferon-induced, double-stranded RNA-activated protein kinase (Homo sapiens) (UniProt P19525); test: Induction of eIF2alpha phosphorylation (unknown origin) assessed as fold increase in ATF-4 stimulation at 20 uM by dual luciferase reporter assay; details: filed as activator
[8] = target: Interferon-induced, double-stranded RNA-activated protein kinase (Homo sapiens) (UniProt P19525); test: Induction of eIF2alpha phosphorylation in human CRL-2813 cells assessed as fold increase in CHOP expression incubated for 6 hrs by RT-PCR analysis; format: cell-based; details: filed as activator, dose 10.0 µM
[9] = target: Interferon-induced, double-stranded RNA-activated protein kinase (Homo sapiens) (UniProt P19525); test: Induction of eIF2alpha phosphorylation (unknown origin) assessed as fold increase in ATF-4 stimulation at 5 uM by dual luciferase reporter assay; details: filed as activator

| Compound | fold change (FC) [3] | IC50 [1] [nM] | IC50 [2] [nM] | also measured |
| --- | --- | --- | --- | --- |
| CC(C)(C)c1ccc(OCCN2CCCCC2)c(C2(c3cc(C(C)(C)C)ccc3OCCN3CCCCC3)C(=O)Nc3ccccc32)c1 | – | 11600 | 2140 | fold change (FC) [4]: 5.91 |
| CCN(CC)CCOc1ccc(C(C)(C)C)cc1C1(c2cc(C(C)(C)C)ccc2OCCN(CC)CC)C(=O)N(CCN(CC)CC)c2ccccc21 | – | 720 | ≤ 540 | fold change (FC) [5]: 14.3 |
| CN(C)CCN1C(=O)C(c2cc(C(C)(C)C)ccc2O)(c2cc(C(C)(C)C)ccc2OCCN2CCCC2)c2ccccc21 (stereo not drawn) | – | ≤ 540 | ≤ 540 | fold change (FC) ([6]; filed as activator): 9.08 |
| CN(C)CCOc1ccc(C(C)(C)C)cc1C1(c2cc(C(C)(C)C)ccc2O)C(=O)N(CCN(C)C)c2ccccc21 (stereo not drawn) | – | 900 | 300 | fold change (FC) ([6]; filed as activator): 14.3 |
| CC(C)(C)c1ccc(O)c(C2(c3cc(C(C)(C)C)ccc3OCCN3CCCCC3)C(=O)Nc3ccccc32)c1 (stereo not drawn) | – | 3350 | 700 | fold change (FC) [7]: 4.15 |
| CC(=O)OCCOc1ccc(C(C)(C)C)cc1C1(c2cc(C(C)(C)C)ccc2O)C(=O)Nc2ccccc21 (stereo not drawn) | 8.59 | 1600 | 2700 | – |
| CC(C)(C)c1ccc(O)c(C2(c3cc(C(C)(C)C)ccc3O)C(=O)Nc3ccccc32)c1 | – | 10200 | 2800 | fold change (FC) [8]: 3; fold change (FC) ([6]; filed as activator): 5.2 |
| CC(=O)OCCOc1ccc(C(C)(C)C)cc1C1(c2cc(C(C)(C)C)ccc2OCCOC(C)=O)C(=O)Nc2ccccc21 | – | 2000 | 2500 | fold change (FC) [4]: 2.07 |
| CC(C)(C)c1ccc(O)c(C2(c3cc(C(C)(C)C)ccc3OCCN3CCOCC3)C(=O)N(CCN3CCOCC3)c3ccccc32)c1 (stereo not drawn) | – | 2000 | 3600 | fold change (FC) [4]: 31.9 |
| CC(C)(C)c1ccc(OCCN2CCOCC2)c(C2(c3cc(C(C)(C)C)ccc3OCCN3CCOCC3)C(=O)Nc3ccccc32)c1 | – | 2400 | 1680 | fold change (FC) [8]: 3; fold change (FC) [7]: 4.98 |
| CC(C)(C)c1ccc(O)c(C2(c3cc(C(C)(C)C)ccc3OCCBr)C(=O)N(CCBr)c3ccccc32)c1 (stereo not drawn) | – | 700 | 4600 | fold change (FC) [4]: 1.99 |
| CN(C)CCN1C(=O)C(c2cc(C(C)(C)C)ccc2OCCN2CCCC2)(c2cc(C(C)(C)C)ccc2OCCN2CCCC2)c2ccccc21 | – | 800 | 540 | fold change (FC) [5]: 11.8 |
| CCN(CC)CCOc1ccc(C(C)(C)C)cc1C1(c2cc(C(C)(C)C)ccc2OCCN(CC)CC)C(=O)Nc2ccccc21 | – | 1000 | ≤ 540 | fold change (FC) [6]: < 0.54 |
| CC(C)(C)c1ccc(O)c(C2(c3cc(C(C)(C)C)ccc3O)C(=O)N(CCBr)c3ccccc32)c1 | 9.6 | 1400 | 1500 | – |
| CN1CCN(CCOc2ccc(C(C)(C)C)cc2C2(c3cc(C(C)(C)C)ccc3OCCN3CCN(C)CC3)C(=O)N(CCN3CCN(C)CC3)c3ccccc32)CC1 | – | – | 600 | fold change (FC) ([6]; filed as activator): 6.73 |
| CC(C)(C)c1ccc(O)c(C2(c3cc(C(C)(C)C)ccc3O)C(=O)N(CCN3CCOCC3)c3ccccc32)c1 | 4.3 | 1600 | 2200 | fold change (FC) [8]: 3 |
| CC(C)(C)c1ccc(O)c(C2(c3cc(C(C)(C)C)ccc3OCCN3CCCC3)C(=O)Nc3ccccc32)c1 (stereo not drawn) | – | 10700 | 1000 | fold change (FC) ([6]; filed as activator): 2.73 |
| COCOc1ccc(C(C)(C)C)cc1C1(c2cc(C(C)(C)C)ccc2O)C(=O)Nc2ccccc21 (stereo not drawn) | 1.21 | 2200 | 4200 | – |
| CC(C)(C)c1ccc(OCCN2CCCC2)c(C2(c3cc(C(C)(C)C)ccc3OCCN3CCCC3)C(=O)Nc3ccccc32)c1 | – | 800 | 650 | fold change (FC) [9]: 13.9 |
| CC(C)(C)c1ccc(O)c(C2(c3cc(C(C)(C)C)ccc3OCCN3CCNCC3)C(=O)Nc3ccccc32)c1 (stereo not drawn) | – | 1500 | 900 | fold change (FC) [7]: 15.1 |
| CN(C)CCN1C(=O)C(c2cc(C(C)(C)C)ccc2O)(c2cc(C(C)(C)C)ccc2O)c2ccccc21 | – | > 20000 | 2700 | fold change (FC) [8]: 3; fold change (FC) [7]: 7.12 |
| CC(C)(C)c1ccc(OCCN2CCCC2)c(C2(c3cc(C(C)(C)C)ccc3OCCN3CCCC3)C(=O)N(CCN3CCCC3)c3ccccc32)c1 | – | 1470 | 550 | fold change (FC) [5]: 12.1 |
| CN(C)CCOc1ccc(C(C)(C)C)cc1C1(c2cc(C(C)(C)C)ccc2OCCN(C)C)C(=O)N(CCN(C)C)c2ccccc21 | – | 700 | 500 | fold change (FC) [5]: 16.8 |
| CCN(CC)CCOc1ccc(C(C)(C)C)cc1C1(c2cc(C(C)(C)C)ccc2O)C(=O)Nc2ccccc21 (stereo not drawn) | – | 1500 | 600 | fold change (FC) [7]: 16.7 |
| COCCOc1ccc(C(C)(C)C)cc1C1(c2cc(C(C)(C)C)ccc2OCCOC)C(=O)Nc2ccccc21 | – | 700 | 4600 | fold change (FC) [4]: 1.58 |
| CC(C)(C)c1ccc(OCCO)c(C2(c3cc(C(C)(C)C)ccc3OCCO)C(=O)Nc3ccccc32)c1 | – | 2900 | 2700 | fold change (FC) [7]: 3.42 |
| CC(C)(C)c1ccc(OCCN2CCOCC2)c(C2(c3cc(C(C)(C)C)ccc3OCCN3CCOCC3)C(=O)N(CCN3CCOCC3)c3ccccc32)c1 | 10.8 | 2700 | 2300 | fold change (FC) [8]: 3 |
| CN(C)CCOc1ccc(C(C)(C)C)cc1C1(c2cc(C(C)(C)C)ccc2O)C(=O)Nc2ccccc21 (stereo not drawn) | – | 1200 | 1900 | fold change (FC) [7]: 4.65 |
| CN1CCN(CCOc2ccc(C(C)(C)C)cc2C2(c3cc(C(C)(C)C)ccc3OCCN3CCN(C)CC3)C(=O)Nc3ccccc32)CC1 | – | 740 | 200 | fold change (FC) ([6]; filed as activator): 9.7 |
| CN1CCN(CCOc2ccc(C(C)(C)C)cc2C2(c3cc(C(C)(C)C)ccc3O)C(=O)Nc3ccccc32)CC1 (stereo not drawn) | – | 1400 | 750 | fold change (FC) [7]: 24.6 |

Now from value to compound, other results behind:

| fold change (FC) [3] | Compound | IC50 [1] [nM] | IC50 [2] [nM] | also measured |
| --- | --- | --- | --- | --- |
| 9.09 | CC(C)(C)c1ccc(O)c(C2(c3cc(C(C)(C)C)ccc3OCCN3CCCC3)C(=O)N(CCN3CCCC3)c3ccccc32)c1 (stereo not drawn) | 7250 | 3600 | – |
| 10.8 | CC(C)(C)c1ccc(O)c(C2(c3cc(C(C)(C)C)ccc3OCCO)C(=O)Nc3ccccc32)c1 (stereo not drawn) | 2900 | 8800 | – |
| 1.34 | CN(C)CCOc1ccc(C(C)(C)C)cc1C1(c2cc(C(C)(C)C)ccc2OCCN(C)C)C(=O)Nc2ccccc21 | 12500 | 10200 | – |
| 11.4 | CC(C)(C)c1ccc(OCCN2CCNCC2)c(C2(c3cc(C(C)(C)C)ccc3OCCN3CCNCC3)C(=O)Nc3ccccc32)c1 | 1500 | 800 | – |
| 5.69 | CC(C)(C)c1ccc(O)c(C2(c3cc(C(C)(C)C)ccc3OCCN3CCOCC3)C(=O)Nc3ccccc32)c1 (stereo not drawn) | 1650 | ≤ 540 | fold change (FC) [8]: 3 |
| 12.9 | CC(C)(C)c1ccc(O)c(C2(c3cc(C(C)(C)C)ccc3OCCBr)C(=O)Nc3ccccc32)c1 (stereo not drawn) | 1000 | 2400 | – |
